# Reference: patent US20240287080A1 (IDEAYA Biosciences Inc., priority 2021, published 2024)
# Target: T1, Pol theta (1-899) (Homo sapiens, UniProt O75417)
# T1 construct: Pol theta (1-899) (5 nM) in assay buffer
# Test: Pol theta ATPase activity, NADH oxidation-coupled enzymatic assay (ATPase NADH coupling: Standard Screening: hPolQ)
# Assay type: biochemical
# Conditions: Pol theta (1-899) 5 nM
# Method in brief: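 Rates of ATP hydrolysis taken from 60-min A340 traces of NADH oxidation via PK/LDH coupling, then fit four-parameter for IC50, Hill slope and max inhibition. Enzyme (5 nM, 1-899) and compounds preincubated 15 min before ATP 100 μM and 50-thymine ssDNA 300 nM (stock, equal volume added).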
# [1] = NADH oxidation-coupled ATPase assay, compounds of Table 3
# T1 sequence (O75417 1-899): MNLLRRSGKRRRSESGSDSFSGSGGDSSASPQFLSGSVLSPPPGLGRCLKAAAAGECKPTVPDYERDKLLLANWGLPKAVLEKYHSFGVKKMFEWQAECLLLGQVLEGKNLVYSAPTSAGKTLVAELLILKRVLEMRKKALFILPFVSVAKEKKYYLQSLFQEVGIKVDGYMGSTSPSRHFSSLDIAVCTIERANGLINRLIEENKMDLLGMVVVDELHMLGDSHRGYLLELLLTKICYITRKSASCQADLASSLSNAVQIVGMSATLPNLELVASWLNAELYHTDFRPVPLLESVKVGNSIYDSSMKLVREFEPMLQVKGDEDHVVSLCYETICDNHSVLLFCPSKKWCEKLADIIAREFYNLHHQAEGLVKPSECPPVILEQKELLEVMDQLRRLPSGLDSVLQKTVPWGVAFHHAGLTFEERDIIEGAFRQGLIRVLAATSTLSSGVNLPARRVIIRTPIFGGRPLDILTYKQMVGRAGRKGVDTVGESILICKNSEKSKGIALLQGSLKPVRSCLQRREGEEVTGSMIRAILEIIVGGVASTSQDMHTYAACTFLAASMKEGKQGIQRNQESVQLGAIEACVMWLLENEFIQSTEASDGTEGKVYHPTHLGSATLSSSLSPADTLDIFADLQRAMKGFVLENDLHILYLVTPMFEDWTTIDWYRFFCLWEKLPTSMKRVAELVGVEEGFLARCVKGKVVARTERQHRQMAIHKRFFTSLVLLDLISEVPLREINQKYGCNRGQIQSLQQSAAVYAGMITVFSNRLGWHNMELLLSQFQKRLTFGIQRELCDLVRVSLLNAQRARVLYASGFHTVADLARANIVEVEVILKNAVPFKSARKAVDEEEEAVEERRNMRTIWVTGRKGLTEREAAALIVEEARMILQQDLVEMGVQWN
IC50 [1] [nM],Structure (SMILES),further results
1000 to 10000,"COc1nnc(NC(=O)c2cnc(C)cc2-c2ccc3ccn(C)c3c2)s1 [Example 480, N-(5-methoxy-1,3,4-thiadiazol-2-yl)-6-methyl-4-(1-methyl-1H-indol-6-yl)pyridine-3-carboxamide]",
1000 to 10000,"COc1nnc(NC(=O)c2cnc(C)cc2-c2cccc3nn(C)cc23)s1 [Example 489, N-(5-methoxy-1,3,4-thiadiazol-2-yl)-6-methyl-4-(2-methyl-2H-indazol-4-yl)pyridine-3-carboxamide]",
1000 to 10000,"COc1nnc(NC(=O)c2cnc(C)cc2-c2ccsc2)s1 [Example 388, N-(5-methoxy-1,3,4-thiadiazol-2-yl)-6-methyl-4-(thiophen-3-yl)nicotinamide]",
,"COc1cnc(Cl)cc1-c1cc(C)ncc1C(=O)Nc1nnc(O[C@H]2CCC[C@H](O)C2)s1 (single isomer, unassigned) [Example 161]","IC50 (Table 5, ATP, dT50 ssDNA): ≤ 200 nM"
,"COc1nnc(NC(=O)c2cnc(C)cc2-c2c(OC)cnc(Cl)c2F)s1 [Example 47, 2′-chloro-3′-fluoro-5′-methoxy-N-(5-methoxy-1,3,4-thiadiazol-2-yl)-6-methyl-(4,4′-bipyridine)-3-carboxamide]","IC50 (Table 4, ATP, dT50 ssDNA): ≤ 200 nM"
1000 to 10000,"COc1nnc(NC(=O)c2cnc(C)cc2-c2ccc(OC)c(C#N)c2)s1 [Example 345, 4-(3-cyano-4-methoxyphenyl)-N-(5-methoxy-1,3,4-thiadiazol-2-yl)-6-methylpyridine-3-carboxamide]",
,"COc1nnc(NC(=O)c2cn3c(C)ncc3cc2-c2cc(Cl)ncc2OC)s1 [Example 103, 7-(2-chloro-5-methoxypyridin-4-yl)-N-(5-methoxy-1,3,4-thiadiazol-2-yl)-3-methylimidazo(1,5-a)pyridine-6-carboxamide]","IC50 (Table 5, ATP, dT50 ssDNA): ≤ 200 nM"
,"COc1nnc(NC(=O)c2cnc(C)cc2-c2cc(Br)ncc2OC)s1 [Example 63, 2′-bromo-5′-methoxy-N-(5-methoxy-1,3,4-thiadiazol-2-yl)-6-methyl-(4,4′-bipyridine)-3-carboxamide]","IC50 (Table 4, ATP, dT50 ssDNA): ≤ 200 nM"
≤ 200,"COc1cnc(Br)cc1-c1cc(C)ncc1C(=O)Nc1nnc(O[C@H]2CCC[C@H](O)C2)s1 [Example 271, 2′-bromo-N-(5-(((1S,3S)-3-hydroxycyclohexyl)oxy)-1,3,4-thiadiazol-2-yl)-5′-methoxy-6-methyl-[4,4′-bipyridine]-3-carboxamide]",
1000 to 10000,"CNS(=O)(=O)c1ccc(-c2cc(C)ncc2C(=O)Nc2nnc(OC)s2)cc1 [Example 384, N-(5-methoxy-1,3,4-thiadiazol-2-yl)-6-methyl-4-[4-(methylsulfamoyl)phenyl]pyridine-3-carboxamide]",
1000 to 10000,"COc1nnc(NC(=O)c2cnc(C)cc2-c2cc(Cl)c([S@+]([O-])C3CC3)cc2OC)s1 (single isomer, unassigned) [Example 321]",
,"CCOc1cnc(Cl)cc1-c1cc(C)ncc1C(=O)Nc1nnc(OC)s1 [Example 42, 2′-chloro-5′-ethoxy-N-(5-methoxy-1,3,4-thiadiazol-2-yl)-6-methyl-(4,4′-bipyridine)-3-carboxamide]","IC50 (Table 4, ATP, dT50 ssDNA): 200 to 500 nM"
500 to 1000,"COc1nnc(NC(=O)c2cnc(C)cc2-c2cccc(S(C)(=O)=O)c2)s1 [Example 397, 4-(3-methanesulfonylphenyl)-N-(5-methoxy-1,3,4-thiadiazol-2-yl)-6-methylpyridine-3-carboxamide]",
,"COc1cnc(Cl)cc1-c1cc(C)ncc1C(=O)Nc1nnc(O[C@H]2CC[C@@H](O)C2)s1 [Example 46, 2′-chloro-N-(5-(((1s,3r)-3-hydroxycyclopentyl)oxy)-1,3,4-thiadiazol-2-yl)-5′-methoxy-6-methyl-(4,4′-bipyridine)-3-carboxamide]","IC50 (Table 4, ATP, dT50 ssDNA): ≤ 200 nM"
≤ 200,"COc1nnc(NC(=O)c2ccccc2-c2cc(Cl)ncc2OC)s1 [Example 291, 2-(2-chloro-5-methoxypyridin-4-yl)-N-(5-methoxy-1,3,4-thiadiazol-2-yl)benzamide]",
,"COc1nnc(NC(=O)c2cnc(C)cc2-c2c(OC)cnc(C)c2F)s1 [Example 61, 3′-fluoro-5′-methoxy-N-(5-methoxy-1,3,4-thiadiazol-2-yl)-2′,6-dimethyl-(4,4′-bipyridine)-3-carboxamide]","IC50 (Table 4, ATP, dT50 ssDNA): ≤ 200 nM"
,"COc1cnc(Cl)cc1-c1cc(C)ncc1C(=O)Nc1nnc(OC2COC2)s1 [Example 13, 2′-chloro-5′-methoxy-6-methyl-N-(5-(oxetan-3-yloxy)-1,3,4-thiadiazol-2-yl)-(4,4′-bipyridine)-3-carboxamide]","IC50 (Table 4, ATP, dT50 ssDNA): ≤ 200 nM"
≤ 200,"COc1cnc(C)c(F)c1-c1cc(C)ncc1C(=O)Nc1nnc(O[C@H]2CCC[C@@H](O)C2)s1 (single isomer, unassigned) [Example 236]",
1000 to 10000,"COc1nnc(NC(=O)c2cnc(C)cc2-c2cncc(C#N)c2)s1 [Example 334, 5-cyano-N-(5-methoxy-1,3,4-thiadiazol-2-yl)-6′-methyl-[3,4′-bipyridine]-3′-carboxamide]",

IC50 [1] [nM],Structure (SMILES),further results
,"COc1cnc(Cl)c(F)c1-c1cc(C)ncc1C(=O)Nc1nnc(O[C@H]2COC3(CC3)C2)s1 (single isomer, unassigned) [Example 210]","IC50 (Table 5, ATP, dT50 ssDNA): ≤ 200 nM"
,"COc1cnc(Cl)cc1-c1cc(C)ncc1C(=O)Nc1nnc(O[C@@H]2COC(C)(C)C2)s1 (single isomer, unassigned) [Example 130]","IC50 (Table 5, ATP, dT50 ssDNA): ≤ 200 nM"
,"Cc1cc(-c2cc(Cl)ncc2OC(F)F)c(C(=O)Nc2nnc(O[C@H]3CC[C@](C)(O)CC3)s2)cn1 (single isomer, unassigned) [Example 223, 2′-chloro-5′-(difluoromethoxy)-N-(5-(((1r,4r)-4-hydroxy-4-methylcyclohexyl)oxy)-1,3,4-thiadiazol-2-yl)-6-methyl-(4,4′-bipyridine)-3-carboxamide]","IC50 (Table 5, ATP, dT50 ssDNA): ≤ 200 nM"
1000 to 10000,"COc1nnc(NC(=O)c2cnc(C)cc2-c2ccc3cn[nH]c3c2)s1 [Example 338, 4-(1H-indazol-6-yl)-N-(5-methoxy-1,3,4-thiadiazol-2-yl)-6-methylnicotinamide]",
,"COc1cnc(C)c(F)c1-c1cc(C)ncc1C(=O)Nc1nnc(O[C@H]2COC3(CC3)C2)s1 (single isomer, unassigned) [Example 208]","IC50 (Table 5, ATP, dT50 ssDNA): ≤ 200 nM"
≤ 200,"COc1cnc(Br)cc1-c1cc(C)ncc1C(=O)Nc1nnc(O[C@@H]2CCC[C@H](O)C2)s1 (single isomer, unassigned) [Example 239]",
1000 to 10000,"COc1nnc(NC(=O)c2cnc(C)cc2-c2cnn(-c3ccccc3)c2C)s1 [Example 456, N-(5-methoxy-1,3,4-thiadiazol-2-yl)-6-methyl-4-(5-methyl-1-phenyl-1H-pyrazol-4-yl)pyridine-3-carboxamide]",
,"COc1cnc(Cl)c(F)c1-c1cc(C)ncc1C(=O)Nc1nnc(O[C@H]2CC[C@@H](O)C2)s1 (racemic) [Example 170, rac-2′-chloro-3′-fluoro-N-(5-(((1R,3S)-3-hydroxycyclopentyl)oxy)-1,3,4-thiadiazol-2-yl)-5′-methoxy-6-methyl-(4,4′-bipyridine)-3-carboxamide]","IC50 (Table 5, ATP, dT50 ssDNA): ≤ 200 nM"
≤ 200,"COc1cnc(Cl)cc1-c1cc(C)ncc1C(=O)Nc1nnc(O[C@@H]2C[C@H](F)CN(C)C2)s1 [Example 267, 2′-chloro-N-(5-(((3R,5S)-5-fluoro-1-methylpiperidin-3-yl)oxy)-1,3,4-thiadiazol-2-yl)-5′-methoxy-6-methyl-[4,4′-bipyridine]-3-carboxamide]",
,"COc1cnc(Cl)cc1-c1cc(C)ncc1C(=O)Nc1nnc(O[C@]2(C)CCOC2)s1 (single isomer, unassigned) [Example 139]","IC50 (Table 5, ATP, dT50 ssDNA): 200 to 500 nM"
,"COc1cnc(Cl)cc1-c1cc(C)ncc1C(=O)Nc1nnc(O[C@H]2CC[C@H](OC)C2)s1 (racemic) [Example 149, rac-2′-chloro-5′-methoxy-N-(5-(((1R,3R)-3-methoxycyclopentyl)oxy)-1,3,4-thiadiazol-2-yl)-6-methyl-(4,4′-bipyridine)-3-carboxamide]","IC50 (Table 5, ATP, dT50 ssDNA): ≤ 200 nM"
1000 to 10000,"CNC(=O)c1ccc(-c2cc(C)ncc2C(=O)Nc2nnc(OC)s2)cc1 [Example 402, N-(5-methoxy-1,3,4-thiadiazol-2-yl)-6-methyl-4-[4-(methylcarbamoyl)phenyl]pyridine-3-carboxamide]",
1000 to 10000,"COc1nnc(NC(=O)c2cnc(C)cc2-c2ccc3c(c2)OC(F)(F)O3)s1 [Example 349, 4-(2,2-difluoro-2H-1,3-benzodioxol-5-yl)-N-(5-methoxy-1,3,4-thiadiazol-2-yl)-6-methylpyridine-3-carboxamide]",
≤ 200,"COc1nnc(NC(=O)c2cnc(C)cc2-c2ccc(F)c(C(F)(F)F)c2)s1 [Example 450, 4-[4-fluoro-3-(trifluoromethyl)phenyl]-N-(5-methoxy-1,3,4-thiadiazol-2-yl)-6-methylpyridine-3-carboxamide]",
,"COc1cnc(Cl)cc1-c1cc(C)ncc1C(=O)Nc1nnc(O[C@@H]2CCC[C@H](O)C2)s1 (single isomer, unassigned) [Example 160]","IC50 (Table 5, ATP, dT50 ssDNA): ≤ 200 nM"
500 to 1000,"COc1nnc(NC(=O)c2cnc(C)cc2-c2ccc(C)cc2C)s1 [Example 386, 4-(2,4-dimethylphenyl)-N-(5-methoxy-1,3,4-thiadiazol-2-yl)-6-methylpyridine-3-carboxamide]",
≤ 200,"COc1cnc(C)cc1-c1cc(C)ncc1C(=O)Nc1nnc(OC2COCC2NCC2CC2)s1 (stereo not shown) [Example 249, N-(5-((4-((cyclopropylmethyl)amino)tetrahydrofuran-3-yl)oxy)-1,3,4-thiadiazol-2-yl)-5′-methoxy-2′,6-dimethyl-[4,4′-bipyridine]-3-carboxamide]",
≤ 200,"COc1nnc(NC(=O)c2cc(OC)c(C)cc2-c2cc(Cl)ncc2OC)s1 [Example 301, 2-(2-chloro-5-methoxypyridin-4-yl)-5-methoxy-N-(5-methoxy-1,3,4-thiadiazol-2-yl)-4-methylbenzamide]",
